Laboratory results as given in patent US20020002171A1, “Materials and methods for killing nematodes and nematode eggs” (priority 2000, published 2002).

System: Caenorhabditis elegans
Assay: C. elegans L1 nematicidal dose response in 96-well plates, 5 day visual score (Example 2; same procedure for Example 7, Table 3)
Format: in vivo
Parameters: key to 5 Day Visual Score V1 / 5 Day Visual Score V2 / 5 Day Visual Score V3 / 5 Day Visual Score V4 / 5 Day Visual Score V6 / 5 Day Visual Score V5 / Initial HTS Run Visual Score / Follow-up HTS Run Visual Score: Dead: only stiff L1s (no movement); Dead (L4): worms are dead, but at a later larval stage; majority of worms are L1 (based on size) worms move when plate is tapped; majority of worms are L2 (based on size); majority of worms are L3 (based on size); majority of worms are L4 (based on size); AD: majority of worms are adult; #AD: 5 adult worms or less; B!: sterile (0-25 progeny); B: low broodsize (25-100 progeny); ˜B: moderate broodsize (100-250 progeny); <: reduced broodsize (250-500 progeny); OK: no effect (˜1000+ progeny)
Details: for 5 Day Visual Score V3: dilution V3, day 5
Method in brief: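 Scoring was by eye at 100× on day 5, after incubation at 20° C, of 20 C. elegans L1s per well fed 1% E. coli HB101 in NGM. Compound columns V1–V6 spanned 70 μM to 0.3 μM in 3-fold steps, with 1.4% DMSO in the top well and as control.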

[1] = dose response, dilution V1, 5 day
[2] = dose response, dilution V4, 5 day
[3] = dose response, dilution V5, 5 day
[4] = dose response, dilution V6, 5 day
[5] = dose response, dilution V4, day 5
[6] = dose response, dilution V5, day 5
[7] = dose response, dilution V6, day 5
[8] = dose response, dilution V1, day 5
[9] = dose response, dilution V2, day 5

## Fc1ccc(N2CCN(c3nc(NCc4ccccc4)ns3)CC2)cc1 [compound 324]
  Follow-up HTS Run % Run: 34%
  Follow-up HTS Run mOD: 54 mOD
  Initial HTS Run % Run: 114%
  Initial HTS Run mOD: 125 mOD
[1]
  5 Day Visual Score V1: L1
[2]
  5 Day Visual Score V4: OK (no effect (˜1000+ progeny))
[3]
  5 Day Visual Score V5: < (reduced broodsize (250-500 progeny))
[4]
  5 Day Visual Score V6: OK (no effect (˜1000+ progeny))

## FC(F)(F)c1cccc(N2CCN(c3nc(NCc4ccccc4C(F)(F)F)ns3)CC2)c1 [compound 258]
  Follow-up HTS Run % Run: 124%
  Follow-up HTS Run Visual Score: B! (sterile (0-25 progeny))
  Follow-up HTS Run mOD: 200 mOD
  Initial HTS Run % Run: 111%
  Initial HTS Run Visual Score: L4/AD/B!-Few Eggs
  Initial HTS Run mOD: 122 mOD
Dose response
  5 Day Visual Score V3: ˜B (moderate broodsize (100-250 progeny))
[5]
  5 Day Visual Score V4: ˜B (moderate broodsize (100-250 progeny))
[6]
  5 Day Visual Score V5: OK (no effect (˜1000+ progeny))
[7]
  5 Day Visual Score V6: OK (no effect (˜1000+ progeny))

## CN(Cc1ccccc1)c1nc(NC2CCCCCCCCCCC2)ns1 [compound 336]
  Follow-up HTS Run % Run: 90%
  Follow-up HTS Run mOD: 145 mOD
  Initial HTS Run % Run: 97%
  Initial HTS Run Visual Score: Dead/1AD/B!
  Initial HTS Run mOD: 107 mOD
[1]
  5 Day Visual Score V1: Dead
Dose response, dilution V2, 5 day
  5 Day Visual Score V2: Dead
[2]
  5 Day Visual Score V4: OK (no effect (˜1000+ progeny))
[3]
  5 Day Visual Score V5: OK (no effect (˜1000+ progeny))
[4]
  5 Day Visual Score V6: OK (no effect (˜1000+ progeny))

## Cc1cccc(C)c1N1CCN(c2nc(NCCC(c3ccccc3)c3ccccc3)ns2)CC1 [compound 287]
  Follow-up HTS Run % Run: 88%
  Follow-up HTS Run mOD: 142 mOD
  Initial HTS Run % Run: 128%
  Initial HTS Run mOD: 141 mOD
[8]
  5 Day Visual Score V1: Dead
[9]
  5 Day Visual Score V2: B (low broodsize (25-100 progeny))
[5]
  5 Day Visual Score V4: OK (no effect (˜1000+ progeny))
[6]
  5 Day Visual Score V5: OK (no effect (˜1000+ progeny))
[7]
  5 Day Visual Score V6: OK (no effect (˜1000+ progeny))

## Cc1cccc(C)c1N1CCN(c2nc(NCc3ccc(C(F)(F)F)cc3)ns2)CC1 [compound 304]
  Follow-up HTS Run % Run: 107%
  Follow-up HTS Run mOD: 172 mOD
  Initial HTS Run % Run: 96%
  Initial HTS Run Visual Score: L4/AD/B!
  Initial HTS Run mOD: 106 mOD
[8]
  5 Day Visual Score V1: L1
[9]
  5 Day Visual Score V2: OK (no effect (˜1000+ progeny))
Dose response
  5 Day Visual Score V3: OK (no effect (˜1000+ progeny))
[5]
  5 Day Visual Score V4: OK (no effect (˜1000+ progeny))
[6]
  5 Day Visual Score V5: OK (no effect (˜1000+ progeny))
[7]
  5 Day Visual Score V6: < (reduced broodsize (250-500 progeny))

## CCN(c1nc(NCc2ccc(C(F)(F)F)cc2)ns1)C1CCCCC1 [compound 305]
  Follow-up HTS Run % Run: 112%
  Follow-up HTS Run Visual Score: L4
  Follow-up HTS Run mOD: 181 mOD
  Initial HTS Run % Run: 102%
  Initial HTS Run mOD: 112 mOD
[9]
  5 Day Visual Score V2: < (reduced broodsize (250-500 progeny))
Dose response
  5 Day Visual Score V3: OK (no effect (˜1000+ progeny))
[5]
  5 Day Visual Score V4: OK (no effect (˜1000+ progeny))
[6]
  5 Day Visual Score V5: OK (no effect (˜1000+ progeny))
[7]
  5 Day Visual Score V6: OK (no effect (˜1000+ progeny))

## Cc1ccc(-c2noc(C3CCC(CNC(=O)Nc4ccc(OC(F)(F)F)cc4)CC3)n2)cc1C (stereo not drawn) [AKC 112]
0.3 μM, C. elegans L1, scored day 5
  5 Day Visual Score V6: OK (no effect (˜1000+ progeny))
0.9 μM, C. elegans L1, scored day 5
  5 Day Visual Score V5: #AD/˜B

## CN(CCc1ccccc1)c1nc(NC2CCCCCCCCCCC2)ns1 [compound 335]
  Follow-up HTS Run % Run: 86%
  Follow-up HTS Run Visual Score: Dead
  Follow-up HTS Run mOD: 139 mOD
  Initial HTS Run % Run: 97%
  Initial HTS Run Visual Score: Dead
  Initial HTS Run mOD: 107 mOD
[1]
  5 Day Visual Score V1: Dead
[4]
  5 Day Visual Score V6: < (reduced broodsize (250-500 progeny))

## CCCCCCCCCCNc1nsc(N(C)CCc2ccccc2)n1 [compound 283]
  Follow-up HTS Run % Run: 120%
  Follow-up HTS Run Visual Score: Dead
  Follow-up HTS Run mOD: 193 mOD
  Initial HTS Run % Run: 131%
  Initial HTS Run Visual Score: Dead
  Initial HTS Run mOD: 144 mOD
[8]
  5 Day Visual Score V1: Dead
[9]
  5 Day Visual Score V2: Dead
[5]
  5 Day Visual Score V4: OK (no effect (˜1000+ progeny))
[6]
  5 Day Visual Score V5: OK (no effect (˜1000+ progeny))
[7]
  5 Day Visual Score V6: OK (no effect (˜1000+ progeny))

## Fc1ccc(CCNc2nsc(N3CCN(c4cccc(C(F)(F)F)c4)CC3)n2)cc1 [compound 225]
  Follow-up HTS Run % Run: 107%
  Follow-up HTS Run mOD: 172 mOD
  Initial HTS Run % Run: 114%
  Initial HTS Run mOD: 125 mOD
Dose response
  5 Day Visual Score V3: ˜B (moderate broodsize (100-250 progeny))
[5]
  5 Day Visual Score V4: OK (no effect (˜1000+ progeny))
[6]
  5 Day Visual Score V5: OK (no effect (˜1000+ progeny))
[7]
  5 Day Visual Score V6: OK (no effect (˜1000+ progeny))
